The text below walks through data of article PMC5668434, “Modulation of telomere protection by the PI3K/AKT pathway” (Nature Communications, 2017).

For assay [1], the target named is T1, PI3K-γ (p110γ) (Homo sapiens, UniProt P48736).
T1 construct: purchased Invitrogen PV4787
Kind of assay: PI3K isoforms biochemical assay (HTRF), PI3K-γ. As to conditions: read-out: PI3Kγ IC50. The procedure:
(§1) PI3Kα (p110α/p85α), PI3K-δ (p110δ/p85α), and PI3K-γ (p110γ) were purchased from Invitrogen (PV4789, PV 5274, and PV4787, respectively). PI3K-β (p110β/p85α) was obtained from Millipore (#14-603). The kinase activity was measured with the commercial PI3-kinase (human) HTRF™ assay available from Millipore (#33-017), following the manufacturer recommendations. The final enzyme concentration in the assay were 100 pM for PI3K-α and PI3K-δ, 500 pM for PI3K-β, and 4 nM for PI3K-γ. […] The enzyme was preincubated with the inhibitor and with 10 μM of PIP2 for 5 min. The enzymatic reaction was started by addition of ATP at 50 times the Km. The incubation was kept at 37 °C for 60 min. Stop solution and detection mix were added sequentially to the wells and plates were incubated 3 h in the dark at 25 °C. HTRF counts were measured in an EnVision reader (Perkin Elmer) using the recommended settings. Values were normalized against the control activity included for the enzyme (100% PI3 kinase activity, without compound). These values were plotted against the inhibitor concentration and were fit to a sigmoid dose-response curve by using Activity base software from IDBS.

Assay [2] has as its system TRF1 mRNA in CHA 9-3 lung cancer cells. Kind of assay: TRF1 mRNA by qPCR. Format: cell-based, mouse. Conditions: 10 μM, 24 h.
The subject of assay [3] is TRF1 protein in p53−/− MEFs nuclear extracts. As to the kind of experiment: Western blot of nuclear TRF1 in p53−/− MEFs. The assay is classed as cell-based, mouse. As to conditions: 10 μM. The procedure: Blots were incubated with the primary antibodies anti-TRF1 1:500 (home-made monoclonal Rat, CNIO; TRF-78, ABCAM, ab10579) and with anti-SMC1 1:2000 (Bethyl Laboratories #A300-055A) as loading control. For nuclear protein preparation, the Nuclear/Cytosol Fractionation Kit (K266-100, BioVision) was used according to the manufactures protocol.

The subject of assay [4] is TRF1 foci in p53−/− mouse embryo fibroblasts (MEF). As to the kind of experiment: TRF1 foci immunofluorescence in p53−/− MEFs. As to conditions: 10 μM, 24 h. The assay is classed as cell-based. The method, then: We then checked whether PI3Kα/AKT inhibition also leads to decreased TRF1 foci in an additional cell type to CHA-9.3 cells. Thus, we used p53 ^−/− mouse embryo fibroblasts (MEF). We treated these MEFs either with the AKT inhibitor MK-2206 or with ETP-47037 at 10 μM concentration for 24 h and analyzed TRF1 foci by immunofluorescence.
TRF1 immunofluorescence of TRF1 was performed in lung tumor-derived cell line (CHA9.3) and in MEFs[39]. A rat monoclonal antibody against mouse TRF1 developed by the Monoclonal antibody unit at CNIO was used to detect endogenous TRF1 (1:500). GFP-TRF1 fluorescence was directly measured in cells fixed in paraformaldehyde. For quantification of TRF1 foci intensity, pictures of fixed cells were automatically acquired from each well by the Opera HCS system (Perkin Elmer). Sixty images of random fields per well, with a 40× magnification lens, were taken under non-saturating conditions. At least 1 × 10^3 cells were analyzed for each well. Briefly, images were segmented using the DAPI staining to generate masks matching cell nuclei from which-TRF1 foci were analyzed.

Assay [5] concerns the target T2, PI3K-β (p110β/p85α) (Homo sapiens, UniProt P42338).
T2 construct: purchased Millipore #14-603
Kind of assay: PI3K isoforms biochemical assay (HTRF), PI3K-β. As to conditions: read-out: PI3Kβ IC50. The procedure:
as §1

The target of assay [6] is T3, PI3K-δ (p110δ/p85α) (Homo sapiens, UniProt O00329).
T3 construct: purchased Invitrogen PV 5274
As to the kind of experiment: PI3K isoforms biochemical assay (HTRF), PI3K-δ. Conditions: read-out: PI3Kδ IC50. The method, then:
as §1

T2 sequence (P42338 whole entry): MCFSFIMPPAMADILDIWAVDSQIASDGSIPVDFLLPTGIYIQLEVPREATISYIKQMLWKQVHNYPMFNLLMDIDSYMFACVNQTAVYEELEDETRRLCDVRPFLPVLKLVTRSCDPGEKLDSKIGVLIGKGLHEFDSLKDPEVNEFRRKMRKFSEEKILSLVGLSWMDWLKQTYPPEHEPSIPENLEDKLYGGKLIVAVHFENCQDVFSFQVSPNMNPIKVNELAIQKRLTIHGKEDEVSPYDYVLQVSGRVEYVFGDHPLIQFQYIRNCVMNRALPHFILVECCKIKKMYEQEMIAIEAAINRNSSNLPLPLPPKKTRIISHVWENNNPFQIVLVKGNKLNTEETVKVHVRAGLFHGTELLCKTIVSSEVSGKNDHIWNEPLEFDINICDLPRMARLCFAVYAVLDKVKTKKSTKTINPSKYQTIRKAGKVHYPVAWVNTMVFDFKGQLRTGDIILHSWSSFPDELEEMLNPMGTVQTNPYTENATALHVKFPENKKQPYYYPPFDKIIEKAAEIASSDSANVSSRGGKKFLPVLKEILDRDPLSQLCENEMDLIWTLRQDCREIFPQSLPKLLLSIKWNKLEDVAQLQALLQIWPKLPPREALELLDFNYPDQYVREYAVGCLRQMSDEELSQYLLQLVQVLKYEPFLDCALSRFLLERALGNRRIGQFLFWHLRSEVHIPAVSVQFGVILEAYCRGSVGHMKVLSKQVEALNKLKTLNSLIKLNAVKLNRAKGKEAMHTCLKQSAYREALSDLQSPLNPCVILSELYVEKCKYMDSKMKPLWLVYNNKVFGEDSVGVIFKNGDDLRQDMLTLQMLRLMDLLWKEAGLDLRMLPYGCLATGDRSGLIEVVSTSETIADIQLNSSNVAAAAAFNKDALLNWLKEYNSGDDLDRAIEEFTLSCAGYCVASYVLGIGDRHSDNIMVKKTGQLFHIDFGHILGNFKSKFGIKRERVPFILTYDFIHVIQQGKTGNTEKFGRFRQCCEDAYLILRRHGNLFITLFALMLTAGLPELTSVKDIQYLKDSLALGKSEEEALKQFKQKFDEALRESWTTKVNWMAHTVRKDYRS
T2 sequence (P27986 whole entry partner): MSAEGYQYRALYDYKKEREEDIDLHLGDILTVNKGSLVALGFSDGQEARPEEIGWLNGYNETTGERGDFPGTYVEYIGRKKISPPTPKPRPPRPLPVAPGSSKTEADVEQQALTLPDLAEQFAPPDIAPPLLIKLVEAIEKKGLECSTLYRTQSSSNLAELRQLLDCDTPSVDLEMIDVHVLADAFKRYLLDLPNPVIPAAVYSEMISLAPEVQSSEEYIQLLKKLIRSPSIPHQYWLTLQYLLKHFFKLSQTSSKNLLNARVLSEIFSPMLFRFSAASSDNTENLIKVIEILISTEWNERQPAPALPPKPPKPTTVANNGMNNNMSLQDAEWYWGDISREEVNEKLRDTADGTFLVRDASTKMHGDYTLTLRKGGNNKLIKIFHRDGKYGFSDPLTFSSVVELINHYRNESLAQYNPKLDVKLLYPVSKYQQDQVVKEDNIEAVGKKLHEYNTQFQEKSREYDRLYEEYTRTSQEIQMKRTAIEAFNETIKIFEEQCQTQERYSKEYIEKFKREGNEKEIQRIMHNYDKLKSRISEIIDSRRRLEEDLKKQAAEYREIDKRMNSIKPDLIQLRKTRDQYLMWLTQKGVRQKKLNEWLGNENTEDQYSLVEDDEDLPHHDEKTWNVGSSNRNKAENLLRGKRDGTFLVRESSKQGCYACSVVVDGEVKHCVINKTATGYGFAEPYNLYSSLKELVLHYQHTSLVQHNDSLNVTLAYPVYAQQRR
T1 sequence (P48736 whole entry): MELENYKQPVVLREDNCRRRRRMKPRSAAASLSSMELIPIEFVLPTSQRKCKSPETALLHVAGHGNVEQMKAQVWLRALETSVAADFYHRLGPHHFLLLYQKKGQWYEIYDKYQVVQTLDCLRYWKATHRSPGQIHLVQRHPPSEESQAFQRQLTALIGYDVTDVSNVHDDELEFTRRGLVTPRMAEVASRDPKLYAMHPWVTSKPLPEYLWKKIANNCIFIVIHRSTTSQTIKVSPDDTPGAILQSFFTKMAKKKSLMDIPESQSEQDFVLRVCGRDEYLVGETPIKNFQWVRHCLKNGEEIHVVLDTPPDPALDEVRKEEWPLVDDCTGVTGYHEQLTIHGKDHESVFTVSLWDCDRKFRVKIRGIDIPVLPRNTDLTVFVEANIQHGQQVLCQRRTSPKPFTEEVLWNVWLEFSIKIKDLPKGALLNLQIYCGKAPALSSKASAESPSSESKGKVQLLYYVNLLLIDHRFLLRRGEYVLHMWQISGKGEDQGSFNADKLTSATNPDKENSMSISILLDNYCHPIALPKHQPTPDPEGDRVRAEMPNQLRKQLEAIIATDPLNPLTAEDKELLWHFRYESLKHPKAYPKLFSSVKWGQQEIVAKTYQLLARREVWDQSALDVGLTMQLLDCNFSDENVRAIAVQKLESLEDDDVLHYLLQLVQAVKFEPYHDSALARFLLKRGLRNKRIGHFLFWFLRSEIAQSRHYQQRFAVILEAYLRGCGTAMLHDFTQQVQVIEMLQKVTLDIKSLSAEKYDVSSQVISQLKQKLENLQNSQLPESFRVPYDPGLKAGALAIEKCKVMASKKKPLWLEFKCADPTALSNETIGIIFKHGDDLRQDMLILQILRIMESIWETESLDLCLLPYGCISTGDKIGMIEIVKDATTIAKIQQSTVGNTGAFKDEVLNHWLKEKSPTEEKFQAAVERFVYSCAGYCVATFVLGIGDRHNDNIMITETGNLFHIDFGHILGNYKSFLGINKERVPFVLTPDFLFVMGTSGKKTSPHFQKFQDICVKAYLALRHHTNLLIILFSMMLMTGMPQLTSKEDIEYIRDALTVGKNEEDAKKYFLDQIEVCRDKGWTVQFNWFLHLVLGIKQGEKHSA
T3 sequence (O00329 whole entry): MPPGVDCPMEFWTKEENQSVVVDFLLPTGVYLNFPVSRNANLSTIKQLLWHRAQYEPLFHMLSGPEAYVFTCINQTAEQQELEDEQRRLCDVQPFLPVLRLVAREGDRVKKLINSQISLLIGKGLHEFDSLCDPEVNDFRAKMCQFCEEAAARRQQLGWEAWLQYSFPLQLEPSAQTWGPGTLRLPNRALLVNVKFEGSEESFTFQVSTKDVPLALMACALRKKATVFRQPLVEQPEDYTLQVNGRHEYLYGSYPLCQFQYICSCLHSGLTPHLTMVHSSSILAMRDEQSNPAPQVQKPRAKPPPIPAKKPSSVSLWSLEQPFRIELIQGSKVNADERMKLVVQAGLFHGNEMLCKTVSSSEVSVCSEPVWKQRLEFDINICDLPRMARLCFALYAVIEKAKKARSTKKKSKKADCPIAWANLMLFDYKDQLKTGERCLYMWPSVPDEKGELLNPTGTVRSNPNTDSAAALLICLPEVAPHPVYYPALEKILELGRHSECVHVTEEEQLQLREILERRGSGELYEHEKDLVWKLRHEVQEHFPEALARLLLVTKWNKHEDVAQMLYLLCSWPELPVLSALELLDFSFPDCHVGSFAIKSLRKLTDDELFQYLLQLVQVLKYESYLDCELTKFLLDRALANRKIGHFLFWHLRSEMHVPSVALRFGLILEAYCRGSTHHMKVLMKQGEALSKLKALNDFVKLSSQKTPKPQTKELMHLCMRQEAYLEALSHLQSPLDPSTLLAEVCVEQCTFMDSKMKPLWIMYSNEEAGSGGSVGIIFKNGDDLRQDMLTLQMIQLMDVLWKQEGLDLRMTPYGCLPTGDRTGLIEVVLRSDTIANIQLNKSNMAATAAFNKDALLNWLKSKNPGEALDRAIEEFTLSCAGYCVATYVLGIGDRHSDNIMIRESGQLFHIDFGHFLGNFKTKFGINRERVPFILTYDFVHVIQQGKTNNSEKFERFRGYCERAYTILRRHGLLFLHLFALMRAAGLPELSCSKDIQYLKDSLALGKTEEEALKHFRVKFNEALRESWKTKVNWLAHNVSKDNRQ
T3 sequence (P27986 whole entry partner): as the sequence (P27986 whole entry partner) above

Turning to `CS(=O)(=O)N1CCN(Cc2cc3c(N4CCOCC4)nc(-c4cnc(N)nc4)cn3n2)CC1` [ETP-47037], the IC50 in assay [1] worked out at 49.1 nM; in assay [5] it was 49.2 nM; in assay [6], 7.13 nM. Moreover, in assay [2], the “TRF1 mRNA levels” value is listed as “None of the inhibitors significantly affected”. Further, in assay [3], the “Total nuclear TRF1 levels compared to DMSO” value was “decreased”. In addition, the “Reduction in TRF1 foci intensity” value in assay [4] worked out at 34%.
